According to patent publication US7135466B2 (Kirin Beer Kabushiki Kaisha, priority 1999, dated 2006):
pIC50: −log10 of the molar value.

What was measured:
PDGF-Ra = biological target: T1, PDGF-Ra (Homo sapiens, UniProt P16234); test: Inhibitory activity against PDGF-Ra phosphorylation by PDGF-AA stimulation using G292; type: cell-based; conditions: for pIC50: > means inhibition at indicated concentration not more than 50%, < and << not less than 50%, read-out: PDGF (E) IC50; for inhibition at 0.1 µM: G292, figure within parentheses in >100( ), at 100 nM, read-out: PDGF (E) inhibition (%) at 100 nM
T1 construct: host or cells: G-292 human osteosarcoma cells
Outline: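 G-292 human osteosarcoma cells in 0.1% FBS medium overnight, given compound for 1 hr at 37° C, then PDGF-AA 50 ng/ml for 5 min. Lysates captured on anti-phosphotyrosine (PY-20) plates and probed with anti-PDGF-Ra plus HRP secondary; absorbance at 450 nm.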

c-kit = biological target: T2, c-kit (Homo sapiens, UniProt P10721); test: Inhibitory activity against c-kit autophosphorylation (MO7e cells, h-SCF); type: cell-based; conditions: for pIC50: MO7e cells, 50 ng/ml h-SCF, read-out: c-kit IC50; for inhibition at 1 µM: Mo7e, figure within parentheses in −( ) or >1000( ), at 1000 nM
T2 construct: MO7e (human megakaryocytic leukemia cell line) which had been arrested for 20 hr; endogenous in cells; host or cells: MO7e human megakaryocytic leukemia cell line
Outline: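 Ligand-induced c-kit tyrosine phosphorylation is measured in MO7e cells that were quiesced 20 hr and preincubated with compound for 1 hr prior to a 5 min pulse of 50 ng/ml human SCF. Phospho-c-kit is detected by anti-phosphotyrosine capture ELISA, A450.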

T1 sequence (P16234 24-1089): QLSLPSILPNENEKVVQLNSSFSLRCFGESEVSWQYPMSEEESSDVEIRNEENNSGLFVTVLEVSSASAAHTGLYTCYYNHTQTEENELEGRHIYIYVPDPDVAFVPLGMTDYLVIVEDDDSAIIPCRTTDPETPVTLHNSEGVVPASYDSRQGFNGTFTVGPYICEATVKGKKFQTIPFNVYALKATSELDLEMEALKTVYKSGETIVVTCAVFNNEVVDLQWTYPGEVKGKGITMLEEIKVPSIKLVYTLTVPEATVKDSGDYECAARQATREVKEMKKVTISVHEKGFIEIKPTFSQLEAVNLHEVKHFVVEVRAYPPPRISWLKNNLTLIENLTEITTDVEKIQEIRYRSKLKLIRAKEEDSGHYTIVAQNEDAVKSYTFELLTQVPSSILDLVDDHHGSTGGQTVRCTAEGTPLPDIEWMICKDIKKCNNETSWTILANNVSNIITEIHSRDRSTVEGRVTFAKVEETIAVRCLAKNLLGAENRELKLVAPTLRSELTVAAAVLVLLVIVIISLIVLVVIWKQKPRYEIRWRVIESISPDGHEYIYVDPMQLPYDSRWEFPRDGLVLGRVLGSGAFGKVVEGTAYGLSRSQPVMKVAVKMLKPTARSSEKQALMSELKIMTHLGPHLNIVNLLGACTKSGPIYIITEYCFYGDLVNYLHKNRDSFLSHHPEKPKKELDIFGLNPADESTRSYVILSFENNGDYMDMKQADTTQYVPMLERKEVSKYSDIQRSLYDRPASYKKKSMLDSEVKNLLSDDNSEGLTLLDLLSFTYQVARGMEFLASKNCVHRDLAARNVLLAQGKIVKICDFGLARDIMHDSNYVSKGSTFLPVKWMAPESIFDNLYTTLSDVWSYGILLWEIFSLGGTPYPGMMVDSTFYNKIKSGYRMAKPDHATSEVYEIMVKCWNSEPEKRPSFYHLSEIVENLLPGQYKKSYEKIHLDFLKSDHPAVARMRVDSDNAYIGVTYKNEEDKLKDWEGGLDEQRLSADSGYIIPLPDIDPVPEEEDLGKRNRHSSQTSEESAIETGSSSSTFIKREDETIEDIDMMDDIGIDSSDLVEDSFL
T2 sequence (P10721 26-976): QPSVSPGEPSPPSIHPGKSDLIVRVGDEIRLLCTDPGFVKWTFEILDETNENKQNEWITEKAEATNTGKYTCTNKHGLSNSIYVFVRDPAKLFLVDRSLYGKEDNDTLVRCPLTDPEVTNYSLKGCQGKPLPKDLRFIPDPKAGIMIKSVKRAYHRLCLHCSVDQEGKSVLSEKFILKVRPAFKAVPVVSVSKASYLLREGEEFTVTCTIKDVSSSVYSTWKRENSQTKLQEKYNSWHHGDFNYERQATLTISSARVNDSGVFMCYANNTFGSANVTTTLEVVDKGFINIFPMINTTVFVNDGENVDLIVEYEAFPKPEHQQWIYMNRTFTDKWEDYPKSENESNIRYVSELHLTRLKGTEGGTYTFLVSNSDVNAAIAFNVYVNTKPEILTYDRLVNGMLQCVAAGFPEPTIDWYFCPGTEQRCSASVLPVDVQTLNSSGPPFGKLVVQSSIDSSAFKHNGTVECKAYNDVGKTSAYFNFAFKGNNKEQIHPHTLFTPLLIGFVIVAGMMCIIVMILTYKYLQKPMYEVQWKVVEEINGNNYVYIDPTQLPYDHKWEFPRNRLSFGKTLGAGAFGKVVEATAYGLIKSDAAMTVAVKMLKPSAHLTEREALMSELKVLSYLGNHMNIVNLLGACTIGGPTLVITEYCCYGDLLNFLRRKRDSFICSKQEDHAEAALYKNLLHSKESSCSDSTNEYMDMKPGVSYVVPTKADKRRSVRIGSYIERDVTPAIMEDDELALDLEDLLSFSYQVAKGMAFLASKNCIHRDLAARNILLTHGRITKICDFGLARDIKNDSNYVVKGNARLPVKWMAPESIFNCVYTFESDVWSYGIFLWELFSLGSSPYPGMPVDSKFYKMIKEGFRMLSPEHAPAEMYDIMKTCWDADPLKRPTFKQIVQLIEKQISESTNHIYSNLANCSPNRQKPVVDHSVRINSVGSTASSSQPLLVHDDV

pIC50 (PDGF-Ra) | pIC50 (c-kit) | inhibition at 0.1 µM (PDGF-Ra) [%] | inhibition at 1 µM (c-kit) [%] | SMILES
> 8.00 | 6.76 |  |  | COc1cc2nccc(Oc3ccc(NC(=O)NCCN4CCOCC4)c(C)c3C)c2cc1OC [Example 617, N-{4-[(6,7-Dimethoxy-4-quinolyl)oxy]-2,3-dimethylphenyl}-N′-(2-morpholinoethyl)urea]
> 8.00 | 6.02 |  |  | COc1cc2nccc(Oc3ccc(NC(=O)NCCN4CCCC4)cc3)c2cc1OC [Example 618, N-{4-[(6,7-Dimethoxy-4-quinolyl)oxy]phenyl}-N′-(2-tetrahydro-1H-1-pyrrolylethyl)urea]
< 7.00 |  | 49 | 44 | COc1cc2nccc(Oc3cc(C)c(NC(=O)NCCN4CCCC4)cc3C)c2cc1OC [Example 619, N-{4-[(6,7-Dimethoxy-4-quinolyl)oxy]-2,5-dimethylphenyl}-N′-(2-tetrahydro-1H-1-pyrrolylethyl)urea]
> 8.00 | 6.28 |  |  | COc1cc2nccc(Oc3ccc(NC(=O)NCCN4CCCC4)c(C)c3C)c2cc1OC [Example 620, N-{4-[(6,7-Dimethoxy-4-quinolyl)oxy]-2,3-dimethylphenyl}-N′-(2-tetrahydro-1H-1-pyrrolylethyl)urea]
7.05 | 6.20 |  |  | CCN(CC)CCNC(=O)Nc1cc(C)c(Oc2ccnc3cc(OC)c(OC)cc23)cc1C [Example 623, N-[2-(Diethylamino)ethyl]-N′-{4-[(6,7-dimethoxy-4-quinolyl)oxy]-2,5-dimethylphenyl}urea]
7.47 | 6.36 |  |  | CCN(CC)CCNC(=O)Nc1ccc(Oc2ccnc3cc(OC)c(OC)cc23)c(C)c1C [Example 624, N-[2-(Diethylamino)ethyl]-N′-{4-[(6,7-dimethoxy-4-quinolyl)oxy]-2,3-dimethylphenyl}urea]
< 7.00 | 6.22 | 31 |  | COc1cc2nccc(Oc3cc(C)c(NC(=O)NCCN(C)C)cc3C)c2cc1OC [Example 625, N-{4-[(6,7-Dimethoxy-4-quinolyl)oxy]-2,5-dimethylphenyl}-N′-[2-(dimethylamino)ethyl]urea]
7.31 | 6.47 |  |  | COc1cc2nccc(Oc3ccc(NC(=O)NCCN(C)C)c(C)c3C)c2cc1OC [Example 626, N-{4-[(6,7-Dimethoxy-4-quinolyl)oxy]-2,3-dimethylphenyl}-N′-[2-(dimethylamino)ethyl]urea]
7.19 | 6.11 |  |  | COc1cc2ncnc(Oc3ccc(NC(=O)NCCN(C)C)cc3)c2cc1OC [Example 627, N-{4-[(6,7-Dimethoxy-4-quinazolinyl)oxy]phenyl}-N′-[2-(dimethylamino)ethyl]urea]
> 8.00 | 7.09 |  |  | COc1cc2nccc(Oc3ccc(NC(=O)NCCN4CCOCC4)cc3)c2cc1OC [Example 628, N-{4-[(6,7-Dimethoxy-4-quinolyl)oxy]phenyl}-N′-(2-morpholinoethyl)urea]
> 8.00 | 6.32 |  |  | COc1cc2ncnc(Oc3ccc(NC(=O)NCCN4CCOCC4)cc3)c2cc1OC [Example 629, N-{4-[(6,7-Dimethoxy-4-quinazolinyl)oxy]phenyl}-N′-(2-morpholinoethyl)urea]
7.44 |  |  | 23 | CCN(CC)CCNC(=O)Nc1ccc(Oc2ncnc3cc(OC)c(OC)cc23)cc1OC [Example 630, N-[2-(Diethylamino)ethyl]-N′-{4-[(6,7-dimethoxy-4-quinazolinyl)oxy]-2-methoxyphenyl}urea]
7.41 | 6.73 |  |  | COc1cc(Oc2ncnc3cc(OC)c(OC)cc23)ccc1NC(=O)NCCN1CCOCC1 [Example 631, N-{4-[(6,7-Dimethoxy-4-quinazolinyl)oxy]-2-methoxyphenyl}-N′-(2-morpholinoethyl)urea]
7.44 | 6.65 |  |  | COc1cc(Oc2ncnc3cc(OC)c(OC)cc23)ccc1NC(=O)NCCN1CCCC1 [Example 632, N-{4-[(6,7-Dimethoxy-4-quinazolinyl)oxy]-2-methoxyphenyl}-N′-(2-tetrahydro-1H-1-pyrrolylethyl)urea]
7.24 |  |  | 28 | COc1cc(Oc2ncnc3cc(OC)c(OC)cc23)ccc1NC(=O)NCCCN1CCN(C)CC1 [Example 633, N-{4-[(6,7-Dimethoxy-4-quinazolinyl)oxy]-2-methoxyphenyl}-N′-[3-(4-methylpiperazino)-propyl]urea]
< 7.00 |  | 40 | 13 | COc1cc2nccc(Oc3cc(C)c(NC(=O)NC4CCN(Cc5ccccc5)CC4)cc3C)c2cc1OC [Example 634, N-(1-Benzyl-4-piperidyl)-N′-{4-[(6,7-dimethoxy-4-quinolyl)oxy]-2,5-dimethylphenyl}urea]

pIC50 (PDGF-Ra) | pIC50 (c-kit) | inhibition at 0.1 µM (PDGF-Ra) [%] | inhibition at 1 µM (c-kit) [%] | SMILES
< 7.00 |  | 25 | 23 | COc1cc2nccc(Oc3ccc(NC(=O)NC4CCN(Cc5ccccc5)CC4)c(C)c3C)c2cc1OC [Example 635, N-(1-Benzyl-4-piperidyl)-N′-{4-[(6,7-dimethoxy-4-quinolyl)oxy]-2,3-dimethylphenyl}urea]
7.48 | 6.97 |  |  | COc1cc2ncnc(Oc3ccc(NC(=O)NC4CCN(Cc5ccccc5)CC4)cc3)c2cc1OC [Example 636, N-(1-Benzyl-4-piperidyl)-N′-{4-[(6,7-dimethoxy-4-quinazolinyl)oxy]phenyl}urea]
7.28 | 6.43 |  |  | COc1cc2ncnc(Oc3ccc(NC(=O)NC4CCN(Cc5ccccc5)CC4)c(Cl)c3)c2cc1OC [Example 637, N-(1-Benzyl-4-piperidyl)-N′-{2-chloro-4-[(6,7-dimethoxy-4-quinazolinyl)oxy]phenyl}urea]
< 7.00 |  | 43 | 16 | COc1cc2nccc(Oc3ccc(NC(=O)NC4CCN(Cc5ccccc5)CC4)c([N+](=O)[O-])c3)c2cc1OC [Example 638, N-(1-Benzyl-4-piperidyl)-N′-{4-[(6,7-dimethoxy-4-quinolyl)oxy]-2-nitrophenyl}urea]
< 7.00 |  | 29 | 12 | COc1cc2nccc(Oc3ccc(NC(=O)NC4CCN(Cc5ccccc5)CC4)cc3F)c2cc1OC [Example 639, N-(1-Benzyl-4-piperidyl)-N′-{4-[(6,7-dimethoxy-4-quinolyl)oxy]-3-fluorophenyl}urea]
7.46 | 6.60 |  |  | COc1cc2ncnc(Oc3ccc(NC(=O)NC4CCN(Cc5ccccc5)CC4)c([N+](=O)[O-])c3)c2cc1OC [Example 640, N-(1-Benzyl-4-piperidyl)-N′-{4-[(6,7-dimethoxy-4-quinazolinyl)oxy]-2-nitrophenyl}urea]
7.55 | 6.53 |  |  | COc1cc(Oc2ncnc3cc(OC)c(OC)cc23)ccc1NC(=O)NC1CCN(Cc2ccccc2)CC1 [Example 641, N-(1-Benzyl-4-piperidyl)-N′-{4-[(6,7-dimethoxy-4-quinazolinyl)oxy]-2-methoxyphenyl}urea]
< 7.00 |  | 20 | 8 | COc1cc2nccc(Oc3ccc(NC(=O)NC4CCN(Cc5ccccc5)CC4)cc3C)c2cc1OC [Example 642, N-(1-Benzyl-4-piperidyl)-N′-{4-[(6,7-dimethoxy-4-quinolyl)oxy]-3-methylphenyl}urea]
< 7.00 |  | 40 | 2 | COc1cc2nccc(Oc3ccc(NC(=O)NC4CCN(Cc5ccccc5)CC4)c(C)c3)c2cc1OC [Example 643, N-(1-Benzyl-4-piperidyl)-N′-{4-[(6,7-dimethoxy-4-quinolyl)oxy]-2-methylphenyl}urea]
< 7.00 |  | 17 | 14 | COc1cc2nccc(Oc3ccc(NC(=O)NC4CCN(Cc5ccccc5)CC4)cc3Cl)c2cc1OC [Example 644, N-(1-Benzyl-4-piperidyl)-N′-{3-chloro-4-[(6,7-dimethoxy-4-quinolyl)oxy]phenyl}urea]
7.64 |  |  | 32 | CCN(CC)CCNC(=O)Nc1ccc(Oc2ncnc3cc(OC)c(OC)cc23)cc1Cl [Example 645, N-{2-Chloro-4-[(6,7-dimethoxy-4-quinazolinyl)oxy]phenyl}-N′-[2-(diethylamino)ethyl]urea]
7.96 |  |  | 0 | CCN(CC)CCNC(=O)Nc1ccc(Oc2ccnc3cc(OC)c(OC)cc23)cc1[N+](=O)[O-] [Example 646, N-[2-(Diethylamino)ethyl]-N′-{4-[(6,7-dimethoxy-4-quinolyl)oxy]-2-nitrophenyl}urea]
7.80 | 6.03 |  |  | CCN(CC)CCNC(=O)Nc1ccc(Oc2ccnc3cc(OC)c(OC)cc23)c(C)c1 [Example 648, N-[2-(Diethylamino)ethyl]-N′-{4-[(6,7-dimethoxy-4-quinolyl)oxy]-3-methylphenyl}urea]
7.49 | 6.38 |  |  | CCN(CC)CCNC(=O)Nc1ccc(Oc2ccnc3cc(OC)c(OC)cc23)cc1Cl [Example 650, N-{2-Chloro-4-[(6,7-dimethoxy-4-quinolyl)oxy]phenyl}-N′-[2-(diethylamino)ethyl]urea]
7.40 | 6.09 |  |  | CCN(CC)CCNC(=O)Nc1ccc(Oc2ccnc3cc(OC)c(OC)cc23)c(Cl)c1 [Example 651, N-{3-Chloro-4-[(6,7-dimethoxy-4-quinolyl)oxy]phenyl}-N′-[2-(diethylamino)ethyl]urea]
